Measured values taken from patent US20040253265A1, “Biological compositions and methods for treatment of bladder cancer” (priority 2003, published 2004).

Experiments:
bladder cell line BBN [1] = assay: Survival of Wistar rats with transplanted bladder cancer cells (Example 9); type: in vivo; conditions: for Number of live animals remaining in the groups after 30 days of treatment: 30 rats per group
Method: The following example illustrates the benefit of a biological composition of the invention in a Wistar rat model of human bladder cancer. The survival time of the rats after tumor injection and treatment was studied.
(§1) The biological composition comprising 10^8 cells per ml of activated and conditioned yeast cells of the strain Saccharomyces cerevisiae Hansen strain AS2.4 was prepared by the methods described in Sections 5.1 and subsections therein.
The animals were prepared in a similar manner as described in Section 8.1.
The rats injected with tumor cells were kept for 5 days and then were divided into 4 experimental groups of ten rats per group and one control group. The four experimental groups were triplicated (i.e., using a total of 120 rats in the experimental groups). In group 2AY, the rats received 0.3 ml of the biological composition once per day. In group 2NY, the rats received 0.3 ml of the untreated yeast cells once per day. In group 2VCR, the rats were injected intravenously with 3 mg of […] (VCR) per kg body weight per day. In group 2CK1, the rats received 0.3 ml of physiological saline once per day.
(§2) The rats received a biological composition, untreated yeast cells, VCR or saline on the same day as the tumor cells were transplanted. The rats in group 2CK2 also started receiving saline on the same day as the other four groups. The biological composition, untreated yeast cells and saline were administered orally by a feeding tube and the VCR by intravenous injection for 30 consecutive days. The rats were observed over 6 months from the day of tumor inoculation and survival was recorded. The weight of the rats and the weight of the tumor were determined by standard techniques.
Each of the 30 rats in each group received 30 consecutive days of either untreated yeast cells, VCR, saline or a biological composition of the invention.

bladder cell line BBN [2] = assay: Tumor growth in Wistar rats with transplanted bladder cancer cells (Example 8); type: in vivo, rat; conditions: tumor-bearing Wistar rats; 30 consecutive days of treatment (yeast 0.3 ml oral once per day; VCR 3 mg/kg/day i.v.); sacrificed on 31st day
Method: The four experimental groups were triplicated (i.e., using a total of 120 rats in the experimental groups).
The weight of the rats and the weight of the tumor were determined by standard techniques.

[3] = tested on: BBN-induced T739 bladder cancer cells (murine bladder transitional cell line BTT739); assay: Survival of T739 mice with transplanted bladder cancer cells (Example 7); type: in vivo; conditions: for Number of live animals remaining in the groups after 30 days of treatment: 30 mice per group
Method: The following example illustrates the benefit of a biological composition of the invention in a mouse model of human bladder cancer based on a murine bladder transitional cell line BTT739. The survival time of mice after tumor injection and treatment was studied.
as §1
The tumors were prepared in a similar manner as described in Sections 6.1.
The animals were prepared in a similar manner as described in Section 6.2.
The mice injected with tumor cells were kept for 5 days and then were divided into 4 experimental groups of ten mice per group and one control group. The four experimental groups were triplicated (i.e., using a total of 120 mice in the experimental groups). In group 2AY, the mice received 0.3 ml of the biological composition once per day. In group 2NY, the mice received 0.3 ml of the untreated yeast cells once per day. In group 2TSPA, the mice were injected intravenously with 1.5 mg of thiotepa (TSPA) per kg body weight per day. In group 2CK1, the mice received 0.3 ml of physiological saline once per day.
as §2, with “The mice” for “The rats”, “cells, TSPA” for “cells, VCR”, “group CK2” for “group 2CK2”, “cells or” for “cells and”, “the TSPA” for “the VCR”, “the mice” for “the rats”
Each of the 30 mice in each group received 30 consecutive days of either untreated yeast cells, TSPA, saline or a biological composition of the invention.

[4] = tested on: BBN-induced T739 bladder cancer cells (murine bladder transitional cell line BTT739); assay: Tumor growth in T739 mice with transplanted bladder cancer cells (Example 6); type: in vivo, mouse; conditions: tumor-bearing T739 mice; 30 consecutive days of treatment (yeast 0.3 ml oral once per day; TSPA 1.5 mg/kg/day i.v.); sacrificed on 31st day
Method: The mice injected with tumor cells were kept for 5 days and then were divided into 4 experimental groups of ten mice per group and one control group. The four experimental groups were triplicated (i.e., using a total of 120 mice in the experimental groups).
The mice in group CK2 also started receiving saline on the same day as the other four groups. […] The weight of the mice and the weight of the tumor were determined by standard techniques.

[5] = 0 month after cessation of treatment
[6] = 1 month after cessation of treatment
[7] = 2 months after cessation of treatment
[8] = 3 months after cessation of treatment
[9] = 4 months after cessation of treatment
[10] = 5 months after cessation of treatment
[11] = 6 months after cessation of treatment
[12] = rats that survived the 6 months observation after 30 days of treatment
[13] = mice that survived the 6 months observation after 30 days of treatment

For `CC[C@]1(O)C[C@@H]2CN(CCc3c([nH]c4ccccc34)[C@@](C(=O)OC)(c3cc4c(cc3OC)N(C)[C@H]3[C@@](O)(C(=O)OC)[C@H](OC(C)=O)[C@]5(CC)C=CCN6CC[C@]43[C@@H]65)C2)C1` [VCR, vinblastine], the “Number of live animals remaining in the groups after 30 days of treatment” value (from here on “Number of live animals remaining”) (bladder cell line BBN [1]; [5]) was 30, the “Number of live animals remaining” value (bladder cell line BBN [1]; [6]) was 30 and the “Number of live animals remaining” value (bladder cell line BBN [1]; [7]) was 30. For the same compound, the “Number of live animals remaining” value (bladder cell line BBN [1]; [8]) was 30, the “Number of live animals remaining” value (bladder cell line BBN [1]; [9]) was 30 and the “Number of live animals remaining” value (bladder cell line BBN [1]; [10]) was 28. The “Number of live animals remaining” value (bladder cell line BBN [1]; [11]) was 26, the “mean weight of rats and standard deviation” value (bladder cell line BBN [1]; [12]) was “all animals dead” and the “mean weight of tumor nodules and standard deviation” value (bladder cell line BBN [1]; [12]) was “all animals dead”. The “mean weight of rats and standard deviation” value (bladder cell line BBN [2]) was 191.3 ± 12.4 g and the “mean weight of tumor nodules and standard deviation” value (bladder cell line BBN [2]) was 2.65 ± 1.7 g.

In the case of `S=P(N1CC1)(N1CC1)N1CC1` [TSPA, thiotepa], the “Number of live animals remaining” value [3, 5] is reported as 30, the “Number of live animals remaining” value [3, 6] is reported as 24 and the “Number of live animals remaining” value [3, 7] is reported as 11. The “Number of live animals remaining” value [3, 8] was 7, the “Number of live animals remaining” value [3, 9] was 2 and the “Number of live animals remaining” value [3, 10] was 0. For the same compound, the “Number of live animals remaining” value [3, 11] was 0, the “survival outcome during the experiment” value ([3]; 30 days of treatment, observed over 6 months) was “all died during the experiment” and the “mean weight of mice and standard deviation” value [3, 13] was “all animals dead”. The “mean weight of tumor nodules and standard deviation” value [3, 13] was “all animals dead”, the “mean weight of mice and standard deviation” value [4] was 19.5 ± 2.2 g and the “mean weight of tumor nodules and standard deviation” value [4] was 3.3 ± 2.1 mg.
